Results published in patent publication US10676457B2, “Cyclopropylamines as LSD1 inhibitors” (Incyte Corporation, priority 2014, dated 2020).

Biological target: LSD-1 enzyme (Homo sapiens (Human), UniProt O60341)
Assay: LANCE LSD1/KDM1A demethylase assay (LSD1 histone demethylase biochemical assay)
Conditions: 1 nM LSD-1 enzyme, 1 hour preincubation at 25° C., 0.4 μM Biotin-labeled Histone H3 peptide substrate
Procedure: LANCE LSD1/KDM1A demethylase assay—10 μL of 1 nM LSD-1 enzyme (ENZO BML-SE544-0050) in the assay buffer (50 mM Tris, pH 7.5, 0.01% Tween-20, 25 mM NaCl, 5 mM DTT) were preincubated for 1 hour at 25° C. with 0.8 μL compound/DMSO dotted in black 384 well polystyrene plates. […] After stopping the reactions plates were incubated for 30 minutes and read on a PHERAstar FS plate reader (BMG Labtech).

## CS(=O)(=O)N1CC(CCO)(N2CCC(N[C@@H]3C[C@H]3c3ccccc3)CC2)C1 [Example 93, 2-[1-(methylsulfonyl)-3-(4-{[(1R,2S)-2-phenylcyclopropyl]amino}piperidin-1-yl)azetidin-3-yl]ethanol]
  IC50: < 100 nM
